# Experimental data: PMC5218480 (PLoS ONE, 2017)
# Test system: MV-4-11 cells
# Assay: Gene expression microarray analysis (Affymetrix PrimeView) and GSEA
# Type: cell-based, human
# Parameters: RFU PODN (11730768_x_at) / Fold change /veh PODN (11730768_x_at) / RFU LINC00158 (11744669_a_at) / Fold change /veh LINC00158 (11744669_a_at) / RFU DUSP10 (11751237_a_at) / Fold change /veh DUSP10 (11751237_a_at) / RFU ID3 (11757404_x_at) / Fold change /veh ID3 (11757404_x_at) / RFU PLEKHG5 (11737974_s_at) / Fold change /veh PLEKHG5 (11737974_s_at) / RFU LRRC4B (11730491_at) / Fold change /veh LRRC4B (11730491_at) / RFU GIMAP4 (11747438_a_at) / Fold change /veh GIMAP4 (11747438_a_at) / RFU KRT8 (11758183_x_at) / Fold change /veh KRT8 (11758183_x_at) / RFU CNN1 (11734310_a_at) / Fold change /veh CNN1 (11734310_a_at) / RFU VPS37D (11726825_at) / Fold change /veh VPS37D (11726825_at) / RFU C10orf10 (11716522_x_at) / Fold change /veh C10orf10 (11716522_x_at) / RFU KIR2DL2 /// KIR2DL4 /// KIR2DL5A /// KIR2DL5B /// KIR2DS1 /// KIR2DS2 /// KIR2DS3 /// KIR2DS4 /// KIR3DL3 /// KIR3DL3 /// KIR3DS1 (11738374_at) / Fold change /veh KIR2DL2 /// KIR2DL4 /// KIR2DL5A /// KIR2DL5B /// KIR2DS1 /// KIR2DS2 /// KIR2DS3 /// KIR2DS4 /// KIR3DL3 /// KIR3DL3 /// KIR3DS1 (11738374_at) / RFU C1QL1 (11718748_at) / Fold change /veh C1QL1 (11718748_at) / RFU TMPRSS4 (11747572_a_at) / Fold change /veh TMPRSS4 (11747572_a_at) / RFU HAMP (11756126_x_at) / Fold change /veh HAMP (11756126_x_at) / RFU RNFT2 (11725882_a_at) / Fold change /veh RNFT2 (11725882_a_at) / RFU NR4A2 (11747474_a_at) / Fold change /veh NR4A2 (11747474_a_at) / RFU ABCC12 (11746883_a_at) / Fold change /veh ABCC12 (11746883_a_at) / RFU TMEM136 (11760407_x_at) / Fold change /veh TMEM136 (11760407_x_at) / RFU CLDN22 /// WWC2 (11732394_at) / Fold change /veh CLDN22 /// WWC2 (11732394_at) / RFU HLA-DPB1 (11760878_x_at) / Fold change /veh HLA-DPB1 (11760878_x_at) / RFU SPINT1 (11716480_a_at) / Fold change /veh SPINT1 (11716480_a_at) / RFU GAP43 (11754022_s_at) / Fold change /veh GAP43 (11754022_s_at) / RFU A4GNT (11735810_at) / Fold change /veh A4GNT (11735810_at) / RFU PRB3 (11715151_x_at) / Fold change /veh PRB3 (11715151_x_at) / RFU TUBB4B (11761932_at) / Fold change /veh TUBB4B (11761932_at) / RFU CAPN14 (11732068_a_at) / Fold change /veh CAPN14 (11732068_a_at) / RFU TMCC2 (11721928_a_at) / Fold change /veh TMCC2 (11721928_a_at) / RFU IRGQ (11745062_a_at) / Fold change /veh IRGQ (11745062_a_at) / RFU FAM174B (11720279_a_at) / Fold change /veh FAM174B (11720279_a_at) / RFU TMPRSS4 (11748680_a_at) / Fold change /veh TMPRSS4 (11748680_a_at) / RFU FAM212B (11763350_a_at) / Fold change /veh FAM212B (11763350_a_at) / RFU PLEKHG5 (11743358_a_at) / Fold change /veh PLEKHG5 (11743358_a_at) / RFU ZSCAN30 (11745921_a_at) / Fold change /veh ZSCAN30 (11745921_a_at) / RFU CMKLR1 (11741424_a_at) / Fold change /veh CMKLR1 (11741424_a_at) / RFU LOC101060620 /// MAPK8IP1 (11723275_at) / Fold change /veh LOC101060620 /// MAPK8IP1 (11723275_at) / RFU SPTSSB (11747773_x_at) / Fold change /veh SPTSSB (11747773_x_at) / RFU PRSS12 (11739890_at) / Fold change /veh PRSS12 (11739890_at) / RFU BIN1 (11741810_x_at) / Fold change /veh BIN1 (11741810_x_at) / RFU WNT11 (11732464_a_at) / Fold change /veh WNT11 (11732464_a_at) / RFU C10orf10 (11716521_a_at) / Fold change /veh C10orf10 (11716521_a_at) / RFU C5orf56 (11738089_at) / Fold change /veh C5orf56 (11738089_at) / RFU CYB561 (11721691_x_at) / Fold change /veh CYB561 (11721691_x_at) / RFU ANKRD19P (11752326_a_at) / Fold change /veh ANKRD19P (11752326_a_at) / RFU OR2T12 /// OR2T33 /// OR2T8 (11738714_s_at) / Fold change /veh OR2T12 /// OR2T33 /// OR2T8 (11738714_s_at) / RFU VCAN (11748164_a_at) / Fold change /veh VCAN (11748164_a_at) / RFU JSRP1 (11732532_at) / Fold change /veh JSRP1 (11732532_at) / RFU KRTAP10-11 (11738290_x_at) / Fold change /veh KRTAP10-11 (11738290_x_at) / RFU MYO3A (11730013_a_at) / Fold change /veh MYO3A (11730013_a_at) / RFU EBF3 (11725865_a_at) / Fold change /veh EBF3 (11725865_a_at) / RFU CAMK2N1 (11719241_x_at) / Fold change /veh CAMK2N1 (11719241_x_at) / RFU C5orf56 (11738088_a_at) / Fold change /veh C5orf56 (11738088_a_at) / RFU OLFML3 (11715873_a_at) / Fold change /veh OLFML3 (11715873_a_at) / RFU LOC100653217 /// NTM (11731650_a_at) / Fold change /veh LOC100653217 /// NTM (11731650_a_at) / RFU MAPK11 (11762145_a_at) / Fold change /veh MAPK11 (11762145_a_at) / RFU FIZ1 (11724087_x_at) / Fold change /veh FIZ1 (11724087_x_at) / RFU OASL (11726364_x_at) / Fold change /veh OASL (11726364_x_at) / RFU SOX15 (11748057_x_at) / Fold change /veh SOX15 (11748057_x_at) / RFU CD79A (11719716_a_at) / Fold change /veh CD79A (11719716_a_at) / RFU HIST1H1D (11736915_at) / Fold change /veh HIST1H1D (11736915_at) / RFU CASKIN2 (11723855_a_at) / Fold change /veh CASKIN2 (11723855_a_at) / RFU LOC730098 (11760151_x_at) / Fold change /veh LOC730098 (11760151_x_at) / RFU OR4N2 (11742367_at) / Fold change /veh OR4N2 (11742367_at) / RFU PRRT2 (11749266_a_at) / Fold change /veh PRRT2 (11749266_a_at) / RFU SNX32 (11753110_a_at) / Fold change /veh SNX32 (11753110_a_at) / RFU CDHR5 (11726645_a_at) / Fold change /veh CDHR5 (11726645_a_at) / RFU RCAN1 (11760418_a_at) / Fold change /veh RCAN1 (11760418_a_at) / RFU FAM167A (11723789_a_at) / Fold change /veh FAM167A (11723789_a_at) / RFU FAM26E (11764081_at) / Fold change /veh FAM26E (11764081_at) / RFU ISYNA1 (11749810_s_at) / Fold change /veh ISYNA1 (11749810_s_at) / RFU ACY1 (11761880_at) / Fold change /veh ACY1 (11761880_at) / RFU 11764098_at / Fold change /veh 11764098_at / RFU SAMD14 (11745864_x_at) / Fold change /veh SAMD14 (11745864_x_at) / RFU NPB (11741838_a_at) / Fold change /veh NPB (11741838_a_at) / RFU TMPRSS6 (11731388_a_at) / Fold change /veh TMPRSS6 (11731388_a_at) / RFU KRTAP10-2 (11738614_at) / Fold change /veh KRTAP10-2 (11738614_at) / RFU ARHGAP8 /// PRR5-ARHGAP8 (11727945_x_at) / Fold change /veh ARHGAP8 /// PRR5-ARHGAP8 (11727945_x_at) / RFU KRTAP5-7 /// NADSYN1 (11734609_at) / Fold change /veh KRTAP5-7 /// NADSYN1 (11734609_at) / RFU RASL12 (11751679_a_at) / Fold change /veh RASL12 (11751679_a_at) / RFU CDKN2B (11736163_a_at) / Fold change /veh CDKN2B (11736163_a_at) / RFU PRF1 (11729649_at) / Fold change /veh PRF1 (11729649_at) / RFU, ZNF638 /// ZNF638-IT1 / Fold change vs veh, ZNF638 /// ZNF638-IT1 / RFU, PANK3 / Fold change vs veh, PANK3 / RFU, SH3YL1 / Fold change vs veh, SH3YL1 / RFU, ZEB2 / Fold change vs veh, ZEB2 / RFU, NRIP1 / Fold change vs veh, NRIP1 / RFU, PTTG1IP / Fold change vs veh, PTTG1IP / RFU, CAPN2 / Fold change vs veh, CAPN2 / RFU, MED14 / Fold change vs veh, MED14 / RFU, SNORA58 / Fold change vs veh, SNORA58 / RFU, C1orf63 / Fold change vs veh, C1orf63 / RFU, LRRFIP1 / Fold change vs veh, LRRFIP1 / RFU, NDUFAF7 / Fold change vs veh, NDUFAF7 / RFU, SLC12A2 / Fold change vs veh, SLC12A2 / RFU, IBTK / Fold change vs veh, IBTK / RFU, ESF1 / Fold change vs veh, ESF1 / Fold change vs veh, TMEM50B / RFU, TAOK1 / Fold change vs veh, TAOK1 / RFU, ACBD3 / Fold change vs veh, ACBD3 / RFU, TMA16 / Fold change vs veh, TMA16 / RFU, RWDD3 / Fold change vs veh, RWDD3 / RFU, BCAT1 / Fold change vs veh, BCAT1 / RFU, EDEM3 / Fold change vs veh, EDEM3 / RFU, TMEM33 / Fold change vs veh, TMEM33 / RFU, WDR75 / Fold change vs veh, WDR75 / RFU, AHCTF1 / Fold change vs veh, AHCTF1 / RFU, TFRC / Fold change vs veh, TFRC / RFU, ZDHHC17 / Fold change vs veh, ZDHHC17 / RFU, NOM1 / Fold change vs veh, NOM1 / RFU, ARL8B / Fold change vs veh, ARL8B / RFU, ZBTB11 / Fold change vs veh, ZBTB11 / RFU, TAMM41 / Fold change vs veh, TAMM41 / RFU, KIAA1704 /// LOC100996395 / Fold change vs veh, KIAA1704 /// LOC100996395 / RFU, ING1 / Fold change vs veh, ING1 / RFU, TRMT61B / Fold change vs veh, TRMT61B / RFU, FUBP3 / Fold change vs veh, FUBP3 / RFU, TP53 / Fold change vs veh, TP53 / RFU, TNKS2 / Fold change vs veh, TNKS2 / RFU, ZFP14 / Fold change vs veh, ZFP14 / RFU, ACTR2 / Fold change vs veh, ACTR2 / RFU, PPP3R1 / Fold change vs veh, PPP3R1 / RFU, PIK3R1 / Fold change vs veh, PIK3R1 / RFU, HNRNPA1 / Fold change vs veh, HNRNPA1 / RFU, RNF170 / Fold change vs veh, RNF170 / RFU, ZNF28 / Fold change vs veh, ZNF28 / RFU, RNGTT / Fold change vs veh, RNGTT / RFU, OGT / Fold change vs veh, OGT / RFU, BRD1 / Fold change vs veh, BRD1 / RFU, MARS / Fold change vs veh, MARS / RFU, ZNF655 / Fold change vs veh, ZNF655 / RFU, FAHD1 / Fold change vs veh, FAHD1 / RFU, BDP1 / Fold change vs veh, BDP1 / RFU, LRRCC1 / Fold change vs veh, LRRCC1 / RFU, ARID1A / Fold change vs veh, ARID1A / RFU, ZNF146 / Fold change vs veh, ZNF146 / RFU, ZNF330 / Fold change vs veh, ZNF330 / RFU, GPN3 / Fold change vs veh, GPN3 / RFU, C9orf123 / Fold change vs veh, C9orf123 / RFU, N4BP2L2 / Fold change vs veh, N4BP2L2 / RFU, ARFIP1 / Fold change vs veh, ARFIP1 / RFU, FAM179B / Fold change vs veh, FAM179B / RFU, BCL10 / Fold change vs veh, BCL10 / RFU, UHRF1BP1L / Fold change vs veh, UHRF1BP1L / RFU, BET1 / Fold change vs veh, BET1 / RFU, CNOT2 / Fold change vs veh, CNOT2 / RFU, ZNF268 / Fold change vs veh, ZNF268 / Fold change vs veh, ZNF507 / RFU, DGCR2 / Fold change vs veh, DGCR2 / RFU, WDSUB1 / Fold change vs veh, WDSUB1 / Fold change vs veh, HSP90B1 /// MIR3652 / RFU, ADSS / Fold change vs veh, ADSS / RFU, GK / Fold change vs veh, GK / RFU, ZNF148 / Fold change vs veh, ZNF148 / RFU, TAF9 / Fold change vs veh, TAF9 / RFU, SLC1A5 / Fold change vs veh, SLC1A5 / RFU, SLMO2 / Fold change vs veh, SLMO2 / RFU, ABCC4 / Fold change vs veh, ABCC4 / RFU, LOC101060439 /// RAP1B / Fold change vs veh, LOC101060439 /// RAP1B / RFU, RFX7 / Fold change vs veh, RFX7 / RFU, GTPBP10 / Fold change vs veh, GTPBP10 / RFU, CNEP1R1 / Fold change vs veh, CNEP1R1 / RFU, BIVM-ERCC5 /// ERCC5 / Fold change vs veh, BIVM-ERCC5 /// ERCC5 / RFU, ILF3 / Fold change vs veh, ILF3 / RFU 11762660_at / Fold change /veh 11762660_at / RFU VCAN (11757783_s_at) / Fold change /veh VCAN (11757783_s_at) / RFU DDX43 (11728927_at) / Fold change /veh DDX43 (11728927_at) / RFU KRT8 (11758188_x_at) / Fold change /veh KRT8 (11758188_x_at) / RFU NKD1 (11759106_at) / Fold change /veh NKD1 (11759106_at) / RFU SRD5A1 (11742802_a_at) / Fold change /veh SRD5A1 (11742802_a_at) / RFU TPSAB1 /// TPSB2 (11721975_s_at) / Fold change /veh TPSAB1 /// TPSB2 (11721975_s_at) / RFU GSTM3 (11746129_a_at) / Fold change /veh GSTM3 (11746129_a_at) / RFU IL23R (11737362_x_at) / Fold change /veh IL23R (11737362_x_at) / RFU TMEM51 (11727254_a_at) / Fold change /veh TMEM51 (11727254_a_at) / RFU PIWIL2 (11732686_x_at) / Fold change /veh PIWIL2 (11732686_x_at) / RFU ORM1 (11744905_x_at) / Fold change /veh ORM1 (11744905_x_at) / RFU CCDC152 (11743942_at) / Fold change /veh CCDC152 (11743942_at) / RFU ECM1 (11717891_a_at) / Fold change /veh ECM1 (11717891_a_at) / RFU IL23R (11748794_a_at) / Fold change /veh IL23R (11748794_a_at) / RFU TNFAIP8L3 (11732012_x_at) / Fold change /veh TNFAIP8L3 (11732012_x_at) / RFU MBOAT4 (11741988_at) / Fold change /veh MBOAT4 (11741988_at) / RFU 11764193_at / Fold change /veh 11764193_at / RFU TMEM53 (11763286_at) / Fold change /veh TMEM53 (11763286_at) / RFU MAGEB2 (11727129_at) / Fold change /veh MAGEB2 (11727129_at) / RFU TMEM200A (11744735_a_at) / Fold change /veh TMEM200A (11744735_a_at) / RFU CCDC152 (11751479_a_at) / Fold change /veh CCDC152 (11751479_a_at) / RFU FAM211A (11726209_a_at) / Fold change /veh FAM211A (11726209_a_at) / RFU RGS16 (11746705_a_at) / Fold change /veh RGS16 (11746705_a_at) / RFU VCAN (11755009_s_at) / Fold change /veh VCAN (11755009_s_at) / RFU RHOB (11743442_s_at) / Fold change /veh RHOB (11743442_s_at) / RFU RGS16 (11720943_a_at) / Fold change /veh RGS16 (11720943_a_at) / RFU RGS16 (11720944_at) / Fold change /veh RGS16 (11720944_at) / RFU, VPS4B / Fold change vs veh, VPS4B / RFU, CREB1 / Fold change vs veh, CREB1 / RFU, DNAJC13 / Fold change vs veh, DNAJC13 / RFU, GNAQ / Fold change vs veh, GNAQ / RFU, CDK5R1 / Fold change vs veh, CDK5R1 / RFU, ZRANB3 / Fold change vs veh, ZRANB3 / RFU, CUL4A / Fold change vs veh, CUL4A / RFU, CCNY / Fold change vs veh, CCNY / RFU, UFL1 / Fold change vs veh, UFL1 / RFU, COG3 / Fold change vs veh, COG3 / RFU, DIAPH2 / Fold change vs veh, DIAPH2 / RFU, SKA2 / Fold change vs veh, SKA2 / RFU, AFF3 / Fold change vs veh, AFF3 / RFU, LMF1 / Fold change vs veh, LMF1 / RFU, IPO11 / Fold change vs veh, IPO11 / RFU, DFFB / Fold change vs veh, DFFB / RFU, FOXP1 / Fold change vs veh, FOXP1 / RFU, CARD8 / Fold change vs veh, CARD8 / RFU, STRN3 / Fold change vs veh, STRN3 / RFU, ADK / Fold change vs veh, ADK / RFU, RASSF2 / Fold change vs veh, RASSF2 / RFU, WIPF1 / Fold change vs veh, WIPF1 / RFU, LARP1B / Fold change vs veh, LARP1B / RFU, RASA1 / Fold change vs veh, RASA1 / RFU, RB1 / Fold change vs veh, RB1 / RFU, PPFIA1 / Fold change vs veh, PPFIA1 / RFU, MAT2A / Fold change vs veh, MAT2A / RFU, CCT5 / Fold change vs veh, CCT5 / RFU, WDR92 / Fold change vs veh, WDR92 / RFU, CUX1 / Fold change vs veh, CUX1 / RFU, TTC7A / Fold change vs veh, TTC7A / RFU, TMEM135 / Fold change vs veh, TMEM135 / RFU, DEPTOR / Fold change vs veh, DEPTOR / RFU, CPM / Fold change vs veh, CPM / RFU, DNAJB6 / Fold change vs veh, DNAJB6 / RFU, CACNA2D3 / Fold change vs veh, CACNA2D3 / RFU, DTX4 / Fold change vs veh, DTX4 / RFU, TFCP2 / Fold change vs veh, TFCP2 / RFU, GMCL1 /// GMCL1P1 / Fold change vs veh, GMCL1 /// GMCL1P1 / RFU, AEBP2 / Fold change vs veh, AEBP2 / RFU, SNHG1 /// SNORD22 /// SNORD25 /// SNORD26 /// SNORD27 /// SNORD28 /// SNORD29 /// SNORD31 / Fold change vs veh, SNHG1 /// SNORD22 /// SNORD25 /// SNORD26 /// SNORD27 /// SNORD28 /// SNORD29 /// SNORD31 / Fold change (Aza/veh), C12orf56 (ProbeSet 11735607_a_at) / Fold change (ACY-1035/veh), C12orf56 (ProbeSet 11735607_a_at) / Fold change (Aza/veh), FGFR1OP (ProbeSet 11751329_s_at) / Fold change (ACY-1035/veh), FGFR1OP (ProbeSet 11751329_s_at) / Fold change (Aza/veh), VPS36 (ProbeSet 11739960_a_at) / Fold change (ACY-1035/veh), VPS36 (ProbeSet 11739960_a_at) / RFU SYPL1 (11715823_x_at) / Fold change /veh SYPL1 (11715823_x_at) / RFU IGFBP7 (11715501_s_at) / Fold change /veh IGFBP7 (11715501_s_at) / RFU REEP3 (11722064_at) / Fold change /veh REEP3 (11722064_at) / RFU IGLL1 (11728026_x_at) / Fold change /veh IGLL1 (11728026_x_at): dose or concentration left out as unconfirmed
# Conditions: ProbeSet 11758779_at; LIST B
compound,measurement,value
Nc1ncn([C@@H]2O[C@H](CO)[C@@H](O)[C@H]2O)c(=O)n1 [azacitidine],"Fold change vs veh, TMEM50B",0.94
